Laboratory results reported in PubChem BioAssay (NCI).
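These data come from cells grown in 96-well plates and exposed to compound for 48 hours at five concentrations. At the GI50, growth is halved. TGI marks complete inhibition of growth.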

Key:
Test in all cases: NCI anticancer screen, dose series, 48 h
NCI-H522 lung = tested on: NCI-H522 lung
KM12 colon = tested on: KM12 colon
DU-145 prostate = tested on: DU-145 prostate
RXF 393 renal = tested on: RXF 393 renal
786-0 renal = tested on: 786-0 renal
MOLT-4 leukemia = tested on: MOLT-4 leukemia
UACC-257 melanoma = tested on: UACC-257 melanoma
ACHN renal = tested on: ACHN renal
HS 578T breast = tested on: HS 578T breast
SNB-75 CNS = tested on: SNB-75 CNS
A549 NSCLC = tested on: A549 NSCLC
HT29 colon = tested on: HT29 colon
SW-620 colon = tested on: SW-620 colon
BT-549 breast = tested on: BT-549 breast
NCI-H460 lung = tested on: NCI-H460 lung
SNB-19 CNS = tested on: SNB-19 CNS
MALME-3M melanoma = tested on: MALME-3M melanoma
RPMI-8226 leukemia = tested on: RPMI-8226 leukemia
SF-268 CNS = tested on: SF-268 CNS
OVCAR-4 ovarian = tested on: OVCAR-4 ovarian
NCI/ADR-RES ovarian = tested on: NCI/ADR-RES ovarian
IGROV1 ovarian = tested on: IGROV1 ovarian
OVCAR-5 ovarian = tested on: OVCAR-5 ovarian
SK-OV-3 ovarian = tested on: SK-OV-3 ovarian
OVCAR-8 ovarian = tested on: OVCAR-8 ovarian
HCC-2998 colon = tested on: HCC-2998 colon
MCF7 breast = tested on: MCF7 breast
LOX IMVI melanoma = tested on: LOX IMVI melanoma
MDA-MB-435 = tested on: MDA-MB-435
UO-31 renal = tested on: UO-31 renal
HCT-15 colon = tested on: HCT-15 colon
SN12C renal = tested on: SN12C renal
HCT-116 colon = tested on: HCT-116 colon
OVCAR-3 ovarian = tested on: OVCAR-3 ovarian
SF-539 CNS = tested on: SF-539 CNS
NCI-H226 lung = tested on: NCI-H226 lung
K-562 leukemia = tested on: K-562 leukemia
NCI-H23 lung = tested on: NCI-H23 lung
SF-295 CNS = tested on: SF-295 CNS
HL-60(TB) leukemia = tested on: HL-60(TB) leukemia
PC-3 prostate = tested on: PC-3 prostate
CAKI-1 renal = tested on: CAKI-1 renal
SK-MEL-2 melanoma = tested on: SK-MEL-2 melanoma
SK-MEL-5 melanoma = tested on: SK-MEL-5 melanoma
COLO 205 colon = tested on: COLO 205 colon
T-47D breast = tested on: T-47D breast
TK-10 renal = tested on: TK-10 renal
EKVX NSCLC = tested on: EKVX NSCLC
MDA-MB-231 breast = tested on: MDA-MB-231 breast
UACC-62 melanoma = tested on: UACC-62 melanoma
A498 renal = tested on: A498 renal
HOP-62 NSCLC = tested on: HOP-62 NSCLC
SK-MEL-28 melanoma = tested on: SK-MEL-28 melanoma
CCRF-CEM leukemia = tested on: CCRF-CEM leukemia
M14 melanoma = tested on: M14 melanoma
HOP-92 NSCLC = tested on: HOP-92 NSCLC
U251 CNS = tested on: U251 CNS

Nc1ccccc1C#Cc1ccccc1C#CCCCCO
GI50 (NCI-H522 lung): 14.3 µM
TGI (NCI-H522 lung): 31.2 µM
GI50 (KM12 colon): 16.9 µM
TGI (KM12 colon): 48.4 µM
GI50 (DU-145 prostate): 28.2 µM
TGI (DU-145 prostate): > 100 µM
GI50 (RXF 393 renal): 5.73 µM
TGI (RXF 393 renal): 26.1 µM
GI50 (786-0 renal): 16 µM
TGI (786-0 renal): 37.7 µM
GI50 (MOLT-4 leukemia): 22.7 µM
TGI (MOLT-4 leukemia): 68.1 µM
GI50 (UACC-257 melanoma): 19.7 µM
TGI (UACC-257 melanoma): 50.9 µM
GI50 (ACHN renal): 24.7 µM
TGI (ACHN renal): 59 µM
GI50 (HS 578T breast): 35.8 µM
TGI (HS 578T breast): > 100 µM
GI50 (SNB-75 CNS): 11.3 µM
TGI (SNB-75 CNS): 33.6 µM
GI50 (A549 NSCLC): 18 µM
TGI (A549 NSCLC): 45 µM
GI50 (HT29 colon): 15.9 µM
TGI (HT29 colon): 31.1 µM
GI50 (SW-620 colon): 25.1 µM
TGI (SW-620 colon): 77.3 µM
GI50 (BT-549 breast): 23.2 µM
TGI (BT-549 breast): 76.5 µM
GI50 (NCI-H460 lung): 30.5 µM
TGI (NCI-H460 lung): > 100 µM
GI50 (SNB-19 CNS): 35.7 µM
TGI (SNB-19 CNS): > 100 µM
GI50 (MALME-3M melanoma): 12.4 µM
TGI (MALME-3M melanoma): 44.4 µM
GI50 (RPMI-8226 leukemia): 29.8 µM
TGI (RPMI-8226 leukemia): 72.2 µM
GI50 (SF-268 CNS): 33.9 µM
TGI (SF-268 CNS): > 100 µM
GI50 (OVCAR-4 ovarian): 34.1 µM
TGI (OVCAR-4 ovarian): 70.6 µM
GI50 (NCI/ADR-RES ovarian): 14.4 µM
TGI (NCI/ADR-RES ovarian): 39.4 µM
GI50 (IGROV1 ovarian): 17.5 µM
TGI (IGROV1 ovarian): 46.7 µM
GI50 (OVCAR-5 ovarian): 25.6 µM
TGI (OVCAR-5 ovarian): 64.4 µM
GI50 (SK-OV-3 ovarian): > 100 µM
TGI (SK-OV-3 ovarian): > 100 µM
GI50 (OVCAR-8 ovarian): 20.3 µM
TGI (OVCAR-8 ovarian): 49.4 µM
GI50 (HCC-2998 colon): 14.6 µM
TGI (HCC-2998 colon): 30.1 µM
GI50 (MCF7 breast): 60.8 µM
TGI (MCF7 breast): > 100 µM
GI50 (LOX IMVI melanoma): 17 µM
TGI (LOX IMVI melanoma): 32.6 µM
GI50 (MDA-MB-435): 10.3 µM
TGI (MDA-MB-435): 53.9 µM
GI50 (UO-31 renal): 20.3 µM
TGI (UO-31 renal): 54.8 µM
GI50 (HCT-15 colon): 19.8 µM
TGI (HCT-15 colon): 42.5 µM
GI50 (SN12C renal): 2800 nM
TGI (SN12C renal): 9.49 µM
GI50 (HCT-116 colon): 12.9 µM
TGI (HCT-116 colon): 26.6 µM
GI50 (OVCAR-3 ovarian): 25.7 µM
TGI (OVCAR-3 ovarian): 63.4 µM
GI50 (SF-539 CNS): 19 µM
TGI (SF-539 CNS): 42.8 µM
GI50 (NCI-H226 lung): 27.4 µM
TGI (NCI-H226 lung): 61.3 µM
GI50 (K-562 leukemia): 19.1 µM
TGI (K-562 leukemia): 58.3 µM
GI50 (NCI-H23 lung): 24.4 µM
TGI (NCI-H23 lung): 58.1 µM
GI50 (SF-295 CNS): 29.2 µM
TGI (SF-295 CNS): 81.2 µM
GI50 (HL-60(TB) leukemia): 23.2 µM
TGI (HL-60(TB) leukemia): 51.8 µM
GI50 (PC-3 prostate): 27.8 µM
TGI (PC-3 prostate): 99.4 µM
GI50 (CAKI-1 renal): 22.8 µM
TGI (CAKI-1 renal): 67.1 µM
GI50 (SK-MEL-2 melanoma): 28.4 µM
TGI (SK-MEL-2 melanoma): > 100 µM
GI50 (SK-MEL-5 melanoma): 31.5 µM
TGI (SK-MEL-5 melanoma): 94.3 µM
GI50 (COLO 205 colon): 23.7 µM
TGI (COLO 205 colon): 59.3 µM
GI50 (T-47D breast): 30.3 µM
TGI (T-47D breast): > 100 µM
GI50 (TK-10 renal): 27.5 µM
TGI (TK-10 renal): 91.5 µM
GI50 (EKVX NSCLC): 29.1 µM
TGI (EKVX NSCLC): 96.7 µM
GI50 (MDA-MB-231 breast): 16.2 µM
TGI (MDA-MB-231 breast): 37 µM
GI50 (UACC-62 melanoma): 11.9 µM
TGI (UACC-62 melanoma): 32.5 µM
GI50 (A498 renal): 21.9 µM
TGI (A498 renal): 77.8 µM
GI50 (HOP-62 NSCLC): 10.9 µM
TGI (HOP-62 NSCLC): 33.5 µM
GI50 (SK-MEL-28 melanoma): 28.4 µM
TGI (SK-MEL-28 melanoma): 49.7 µM
GI50 (CCRF-CEM leukemia): 23.2 µM
TGI (CCRF-CEM leukemia): 78.7 µM
GI50 (M14 melanoma): 17.1 µM
TGI (M14 melanoma): 36.2 µM
GI50 (HOP-92 NSCLC): 28.1 µM
TGI (HOP-92 NSCLC): 80.4 µM
GI50 (U251 CNS): 22.6 µM
TGI (U251 CNS): 47.1 µM
